In patent publication US7250410B2, “Cyclic nucleotide phosphodiesterase inhibitors, preparation and uses thereof” (Via Pharmaceuticals, Inc., priority 2001, dated 2007):
pIC50: −log10 of the molar value.

Molecular target: PDE4
Assay: Inhibition of PDE4, radioenzymatic phosphodiesterase assay
Format: biochemical, bovine
Settings: Table 1, formula (III); 1 μM cyclic AMP
Summary of the method: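 PDE4 partially purified from bovine aortic media by 105,000 g centrifugation and anion-exchange chromatography with an NaCl gradient. Activity measured radioenzymatically: product nucleoside separated from nucleotides by anion exchange and counted by liquid scintillation.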

Row | Structure (SMILES) | pIC50
1 | COc1cc2c(cc1OC)C(c1ccc(I)cc1)=NN(C)C(=O)C2 [IIIah, 1-(4-iodophenyl)-7,8-dimethoxy-3-methyl-3,5-dihydro-4H-2,3-benzodiazepin-4-one] | 5.51
2 | CCCCCC#Cc1ccc(C2=NN(C)C(=O)Cc3cc(OC)c(OC)cc32)cc1 [IIIax, 1-[4-(heptyn-1-yl)phenyl]-7,8-dimethoxy-3-methyl-3,5-dihydro-4H-2,3-benzodiazepin-4-one] | 5.11

Same assay, conditions: Table 1, formula (III); compound at 10 μM

Row | Structure (SMILES) | PDE4 percentage inhibition at 10 μM [%]
3 | CCCCCCCCCCCCN1N=C(c2ccccc2)c2cc(OC)c(OC)cc2CC1=O [IIIad, 3-n-dodecyl-7,8-dimethoxy-1-phenyl-3,5-dihydro-4H-2,3-benzodiazepin-4-one] | 3.9
4 | COc1cc2c(cc1OC)C(c1ccccc1)=NN(Cc1ccccc1)C(=O)C2 [IIIac, 3-benzyl-7,8-dimethoxy-1-phenyl-3,5-dihydro-4H-2,3-benzodiazepin-4-one] | 33

Same assay, conditions: Table 2, formula (XXII); compound at 10 μM

Row | Structure (SMILES) | PDE4 percentage inhibition at 10 μM [%]
5 | COc1ccc2c(c1)C(c1ccccc1)=NCC(=O)N2 [XXIIao, 7-methoxy-5-phenyl-1,3-dihydro-2H-1,4-benzodiazepin-2-one] | 11.5
6 | COc1cc2c(cc1OC)C(c1ccccc1)=NC(CC(C)C)C(=O)N2 (centres unmarked) [XXIIad, 7,8-dimethoxy-3-isobutyl-5-phenyl-1,3-dihydro-2H-1,4-benzodiazepin-2-one] | 14.9
7 | COc1cc2c(cc1OC)C(c1ccccc1)=NC(C)C(=O)N2 (centres unmarked) [XXIIaq, 7,8-dimethoxy-3-methyl-5-phenyl-1,3-dihydro-2H-1,4-benzodiazepin-2-one] | 26.2

Same assay, conditions: Table 3, formula (II); 1 μM cyclic AMP

Row | Structure (SMILES) | pIC50
8 | CCN1C(=O)CN=C(c2ccc(-c3ccccc3)cc2)c2cc(OC)c(OC)cc21 [IIbp, 5-(1,1′-biphenyl-4-yl)-1-ethyl-7,8-dimethoxy-1,3-dihydro-2H-1,4-benzodiazepin-2-one] | 5.24
9 | CCN1C(=O)C(Cc2ccccc2)N=C(c2ccccc2)c2cc(OC)c(OC)cc21 (centres unmarked) [IIcq, 3-benzyl-1-ethyl-7,8-dimethoxy-5-phenyl-1,3-dihydro-2H-1,4-benzodiazepin-2-one] | 5.13
10 | CCN1C(=O)CN=C(c2ccc(C#CCNC(=O)OC(C)(C)C)cc2)c2cc(OC)c(OC)cc21 [IIbo, tert-butyl 3-[4-(1-ethyl-7,8-dimethoxy-2-oxo-2,3-dihydro-1H-1,4-benzodiazepin-5-yl)phenyl]prop-2-ynylcarbamate] | 5.53
11 | CCN1C(=O)C(Cc2cc(Cl)ccc2Cl)N=C(c2ccccc2)c2cc(OC)c(OC)cc21 (centres unmarked) [IIdi, 3-(2,5-dichlorobenzyl)-7,8-dimethoxy-1-ethyl-5-phenyl-1,3-dihydro-2H-1,4-benzodiazepin-2-one] | 5.09
12 | CCN1C(=O)C(Cc2cccc(C#N)c2)N=C(c2ccccc2)c2cc(OC)c(OC)cc21 (centres unmarked) [IIcp, 3-[(1-ethyl-7,8-dimethoxy-2-oxo-5-phenyl-2,3-dihydro-1H-1,4-benzodiazepin-3-yl)methyl]benzonitrile] | 5.04
13 | COc1cc2c(cc1OC)N(C)C(=O)CN=C2/C=C/c1ccccc1 [IIas, 7,8-dimethoxy-1-methyl-5-[(E)-2-phenylethenyl]-1,3-dihydro-2H-1,4-benzodiazepin-2-one] | 5.08
14 | COc1cc2c(cc1OC)N(C)C(=O)CN=C2c1cc2ccccc2[nH]1 [IIaq, 5-(2-indolyl)-7,8-dimethoxy-1-methyl-1,3-dihydro-1,4-benzodiazepin-2-one] | 5.10
15 | COc1cc2c(cc1OC)N(C)C(=O)CN=C2c1cc2ccccc2s1 [IIac, 5-(2-benzo[b]thienyl)-7,8-dimethoxy-1-methyl-1,3-dihydro-1,4-benzodiazepin-2-one] | 5.64

Same assay, conditions: Table 3, formula (II); compound at 10 μM

Row | Structure (SMILES) | PDE4 percentage inhibition at 10 μM [%]
16 | COc1ccc(C2=NCC(=O)N(C)c3cc(OC)c(OC)cc32)cc1OC [IIab, 7,8-dimethoxy-5-(3,4-dimethoxyphenyl)-1-methyl-1,3-dihydro-1,4-benzodiazepin-2-one] | 38
17 | COc1cc2c(cc1OC)N(C)C(=O)CN=C2c1ccco1 [IIah, 5-(2-furyl)-7,8-dimethoxy-1-methyl-1,3-dihydro-1,4-benzodiazepin-2-one] | 36
